From ChEMBL document CHEMBL5625191, “A review of progress in o-aminobenzamide-based HDAC inhibitors with dual targeting capabilities for cancer therapy” (Eur J Med Chem, 2023)
Values belong to the compound of their own block, whether it stands above or below them.

Key:
[1] = biological target: T1, Histone deacetylase 1 (Homo sapiens, UniProt Q13547); test: Inhibition of HDAC1 (unknown origin)
[2] = tested on: HCT-116; test: Antiproliferative activity against human HCT-116 cells assessed as inhibition of cell growth; assay type: functional, cell-based
[3] = biological target: T2, Histone deacetylase 2 (Homo sapiens, UniProt Q92769); test: Inhibition of HDAC2 (unknown origin)
[4] = tested on: A549; test: Antiproliferative activity against human A549 cells assessed as inhibition of cell growth incubated for 48 hrs by MTT assay; assay type: functional, cell-based; conditions: A549, 48 h
[5] = biological target: T1, Histone deacetylase 1; test: Inhibition of HDAC1 in human HeLa nuclear extract using Boc-Lys(Ac)-AMC or Boc-Lys(Tfa)-AMC as substrate preincubated for 5 mins followed by substrate addition and measured after 30 mins by fluorescence assay; assay type: cell-free
[6] = tested on: Jurkat; test: Antiproliferative activity against human Jurkat cells assessed as inhibition of cell growth incubated for 48 hrs by MTT assay; assay type: functional, cell-based
[7] = tested on: HCT-116; test: Antiproliferative activity against human HCT-116 cells assessed as inhibition of cell growth incubated for 48 hrs by MTT assay; assay type: functional, cell-based; conditions: HCT-116, 48 h
[8] = tested on: HEL; test: Antiproliferative activity against human HEL cells assessed as inhibition of cell growth incubated for 48 hrs by MTT assay; assay type: functional, cell-based
[9] = biological target: Histone deacetylase 3 (Homo sapiens, UniProt O15379); test: Inhibition of HDAC3 in human HeLa nuclear extract using Boc-Lys(Ac)-AMC or Boc-Lys(Tfa)-AMC as substrate preincubated for 5 mins followed by substrate addition and measured after 30 mins by fluorescence assay; assay type: cell-free
[10] = biological target: T2, Histone deacetylase 2; test: Inhibition of HDAC2 in human HeLa nuclear extract using Boc-Lys(Ac)-AMC or Boc-Lys(Tfa)-AMC as substrate preincubated for 5 mins followed by substrate addition and measured after 30 mins by fluorescence assay; assay type: cell-free
[11] = tested on: PC-3; test: Antiproliferative activity against human PC-3 cells assessed as inhibition of cell growth incubated for 48 hrs by MTT assay; assay type: functional, cell-based; conditions: PC-3, 48 h
[12] = tested on: HeLa; test: Antiproliferative activity against human HeLa cells assessed as inhibition of cell growth incubated for 48 hrs by MTT assay; assay type: functional, cell-based
[13] = tested on: MOLT-4; test: Antiproliferative activity against human MOLT-4 cells assessed as inhibition of cell growth incubated for 48 hrs by MTT assay; assay type: functional, cell-based; conditions: MOLT-4, 48 h
[14] = Antiproliferative activity against human MET-1 cells assessed as inhibition of cell growth; assay type: functional, cell-based
[15] = Antiproliferative activity against human SCCIC1 cells assessed as inhibition of cell growth; assay type: functional, cell-based
[16] = tested on: SK-MEL-1; test: Antitumor activity against human SK-MEL-1 cells assessed as tumor growth inhibition at 30 mg/kg, ip administered for 28 days; assay type: functional; conditions: SK-MEL-1, 672 h, time 28 day, read-out: TGI
[17] = biological target: Histone deacetylase; test: Inhibition of HDAC (unknown origin); assay type: protein assay, Homo sapiens
[18] = biological target: Histone deacetylase (Homo sapiens) (UniProt Q13547+O15379+Q9UBN7+Q92769+Q9UQL6+Q8WUI4+Q9BY41+Q96DB2+P56524+Q9UKV0+Q969S8); test: Inhibition of HDAC in human RPMI-8226 cells at 10 uM incubated for 8 hrs relative to control; assay type: cell-based
[19] = Antiproliferative activity against human Bortezomib-resistant RPMI-8226 cells assessed as inhibition of cell growth incubated for 72 hrs by XTT assay; assay type: functional, cell-based; conditions: Bortezomib-resistant RPMI-8226, 72 h
[20] = tested on: RPMI-8226; test: Antiproliferative activity against human RPMI-8226 cells assessed as inhibition of cell growth incubated for 72 hrs by XTT assay; assay type: functional, cell-based; conditions: RPMI-8226, 72 h
[21] = biological target: Histone deacetylase; test: Inhibition of HDAC in human HeLa nuclear extract using Boc-Lys(Ac)-AMC or Boc-Lys(Tfa)-AMC as substrate preincubated for 5 mins followed by substrate addition and measured after 30 mins by fluorescence assay; assay type: cell-free
[22] = biological target: Ephrin type-A receptor 2 (Homo sapiens, UniProt P29317); test: Inhibition of EphA2 (unknown origin) incubated for 30 mins by TR-FRET assay
[23] = tested on: MCF7; test: Antiproliferative activity against human MCF7 cells assessed as inhibition of cell growth incubated for 48 hrs by MTT assay; assay type: functional, cell-based; conditions: MCF7, 48 h
[24] = tested on: K562; test: Antiproliferative activity against human K562 cells assessed as inhibition of cell growth incubated for 48 hrs by MTT assay; assay type: functional, cell-based; conditions: K562, 48 h
[25] = tested on: HCT-116; test: Antitumor activity against human HCT-116 cells xenografted in BALB/c mouse assessed tumor growth inhibition at 150 mg/kg, po bid measured for every 3 days; assay type: functional; conditions: HCT-116, 72 h, time 3 day, read-out: TGI
[26] = tested on: MCF7; test: Antiproliferative activity against human MCF7 cells assessed as inhibition of cell growth incubated for 48 hrs by CCK-8 assay; assay type: functional, cell-based; conditions: MCF7, 48 h
[27] = biological target: Tubulin; test: Inhibition of tubulin polymerization (unknown origin); assay type: protein-complex assay, Homo sapiens
[28] = tested on: KYSE-450; test: Antiproliferative activity against human KYSE-450 cells assessed as inhibition of cell growth; assay type: functional, cell-based
[29] = tested on: MGC-803; test: Antiproliferative activity against human MGC-803 cells assessed as inhibition of cell growth; assay type: functional, cell-based

T2 sequence (Q92769 whole entry): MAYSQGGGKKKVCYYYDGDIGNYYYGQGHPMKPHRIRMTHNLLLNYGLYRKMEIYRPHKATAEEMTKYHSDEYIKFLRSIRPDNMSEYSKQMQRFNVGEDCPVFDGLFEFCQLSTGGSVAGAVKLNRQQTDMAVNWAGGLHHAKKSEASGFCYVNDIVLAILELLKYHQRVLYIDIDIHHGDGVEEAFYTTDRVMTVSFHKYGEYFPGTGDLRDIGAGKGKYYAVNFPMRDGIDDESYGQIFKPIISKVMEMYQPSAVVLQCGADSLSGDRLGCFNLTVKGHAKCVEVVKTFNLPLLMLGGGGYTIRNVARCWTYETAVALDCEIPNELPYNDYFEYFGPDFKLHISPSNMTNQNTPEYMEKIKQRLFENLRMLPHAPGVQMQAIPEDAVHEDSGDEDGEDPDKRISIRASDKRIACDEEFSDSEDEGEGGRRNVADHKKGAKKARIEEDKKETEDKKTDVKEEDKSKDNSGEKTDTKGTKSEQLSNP
T1 sequence (Q13547 whole entry): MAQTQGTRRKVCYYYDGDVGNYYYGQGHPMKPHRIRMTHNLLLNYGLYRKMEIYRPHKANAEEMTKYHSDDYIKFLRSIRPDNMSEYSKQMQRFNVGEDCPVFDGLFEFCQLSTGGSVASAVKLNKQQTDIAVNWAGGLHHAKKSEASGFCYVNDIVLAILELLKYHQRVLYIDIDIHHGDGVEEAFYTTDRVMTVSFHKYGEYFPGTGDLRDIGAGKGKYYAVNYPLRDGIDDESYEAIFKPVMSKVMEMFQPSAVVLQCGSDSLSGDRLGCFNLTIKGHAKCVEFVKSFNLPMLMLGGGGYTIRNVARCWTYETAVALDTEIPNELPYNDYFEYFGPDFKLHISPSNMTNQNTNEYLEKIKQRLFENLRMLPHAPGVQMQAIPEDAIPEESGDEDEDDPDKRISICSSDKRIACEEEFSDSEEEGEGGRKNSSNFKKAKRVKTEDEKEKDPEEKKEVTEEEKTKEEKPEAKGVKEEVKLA
Chain of Histone deacetylase 3 (O15379 whole entry): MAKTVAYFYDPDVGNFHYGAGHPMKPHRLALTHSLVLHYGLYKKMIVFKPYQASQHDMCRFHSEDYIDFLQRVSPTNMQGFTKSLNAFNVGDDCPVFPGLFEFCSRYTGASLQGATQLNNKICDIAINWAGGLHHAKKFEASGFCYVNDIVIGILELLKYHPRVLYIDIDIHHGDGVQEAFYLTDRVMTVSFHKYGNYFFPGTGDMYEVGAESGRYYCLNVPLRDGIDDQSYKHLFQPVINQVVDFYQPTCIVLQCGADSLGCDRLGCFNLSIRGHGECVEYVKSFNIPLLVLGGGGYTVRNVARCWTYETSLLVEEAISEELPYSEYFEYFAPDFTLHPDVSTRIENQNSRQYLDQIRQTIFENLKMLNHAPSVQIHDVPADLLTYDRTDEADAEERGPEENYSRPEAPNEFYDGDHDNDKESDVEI
Chain of Ephrin type-A receptor 2 (P29317 whole entry): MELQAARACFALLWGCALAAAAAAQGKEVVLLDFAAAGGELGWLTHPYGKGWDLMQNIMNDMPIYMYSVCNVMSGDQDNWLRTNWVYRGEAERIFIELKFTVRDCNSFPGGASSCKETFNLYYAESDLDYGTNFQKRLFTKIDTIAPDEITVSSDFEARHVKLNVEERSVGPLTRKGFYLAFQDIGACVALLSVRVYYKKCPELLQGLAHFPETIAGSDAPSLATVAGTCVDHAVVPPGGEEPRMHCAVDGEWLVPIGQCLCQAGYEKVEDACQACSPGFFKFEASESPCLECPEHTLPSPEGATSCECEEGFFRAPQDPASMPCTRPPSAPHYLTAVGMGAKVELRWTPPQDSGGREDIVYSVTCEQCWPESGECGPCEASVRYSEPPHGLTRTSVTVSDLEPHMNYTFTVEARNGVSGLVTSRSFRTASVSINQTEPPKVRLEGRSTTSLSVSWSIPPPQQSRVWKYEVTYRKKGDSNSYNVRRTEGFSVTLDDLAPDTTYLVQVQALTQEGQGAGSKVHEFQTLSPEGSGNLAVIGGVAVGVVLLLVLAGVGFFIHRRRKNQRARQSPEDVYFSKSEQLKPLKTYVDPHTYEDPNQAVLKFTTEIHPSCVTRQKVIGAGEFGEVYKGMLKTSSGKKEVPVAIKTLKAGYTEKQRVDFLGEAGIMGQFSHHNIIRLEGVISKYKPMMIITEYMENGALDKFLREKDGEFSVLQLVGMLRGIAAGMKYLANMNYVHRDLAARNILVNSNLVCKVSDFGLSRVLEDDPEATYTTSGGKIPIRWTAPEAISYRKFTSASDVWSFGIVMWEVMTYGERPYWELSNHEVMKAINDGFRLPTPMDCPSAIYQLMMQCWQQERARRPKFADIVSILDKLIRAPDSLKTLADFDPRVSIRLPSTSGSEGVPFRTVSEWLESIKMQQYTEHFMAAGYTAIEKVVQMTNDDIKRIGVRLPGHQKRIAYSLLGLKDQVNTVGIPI

IC50 [1]: 1510 nM
IC50 [2]: 2760 nM
IC50 [3]: 6250 nM
Compound: CN1c2ccc(NCc3ccc(C(=O)Nc4ccccc4N)cc3)cc2C(=O)N2CCc3c([nH]c4ccccc34)[C@H]21

IC50 [4]: 1550 nM
IC50 [5]: 660 nM
IC50 [6]: 470 nM
IC50 [7]: 790 nM
IC50 [9]: 500 nM
IC50 [10]: 1200 nM
IC50 [11]: 1920 nM
IC50 [12]: 1560 nM
IC50 [13]: 720 nM
Compound: Nc1ccccc1NC(=O)CCCCCCCOc1no[n+]([O-])c1S(=O)(=O)c1ccccc1
IC50 [8]: 420 nM

Compound: Nc1ccccc1NC(=O)c1ccc(CCCC(=O)Nc2ccc([C@@H]3C[C@H]3N)cc2)cc1
IC50 [14]: 6 nM
IC50 [15]: 41 nM
inhibition in vivo at 30 mg/kg [16]: 61%

IC50 [17]: 23.6 nM
inhibition [18]: 33%
IC50 [20]: 9.5 nM
Compound: CC(C)C[C@@H](NC(=O)[C@H](Cc1ccccc1)NC(=O)c1cnc(C(=O)Nc2ccccc2N)cn1)B1OC2CC3CC(C3(C)C)[C@@]2(C)O1 (stereo not given in full)
IC50 [19]: 158 nM

IC50 [21]: 1520 nM
IC50 [22]: 570 nM
IC50 [7]: 5290 nM
IC50 [23]: 7420 nM
Compound: COc1ccc(C(=O)Nc2ccc(NC(=O)Nc3ccccc3N)cc2)cc1

IC50 [21]: 940 nM
IC50 [22]: 680 nM
IC50 [24]: 8360 nM
Compound: Nc1ccccc1NC(=O)Nc1ccc(NC(=O)c2cccnc2)cc1

IC50 [26]: 18 nM
Compound: CN1c2ccccc2C(=O)N2[C@H](C(=O)Nc3ccc(C(=O)Nc4ccccc4N)cc3)Cc3c([nH]c4ccccc34)[C@@H]12
inhibition in vivo at 150 mg/kg [25]: 75.2%

IC50 [17]: 15000 nM
Compound: CCN1CCN(c2cc(Nc3ncc(C(=O)Nc4ccccc4N)s3)ncn2)CC1

IC50 [27]: 3640 nM
IC50 [1]: 525 nM
IC50 [2]: 172 nM
IC50 [29]: 30 nM
Compound: COc1ccc(CN(C(=O)Cc2ccc(C(=O)Nc3ccccc3N)cc2)c2cc(OC)c(OC)c(OC)c2)cc1O
IC50 [28]: 254 nM

IC50 [4]: 980 nM
IC50 [5]: 470 nM
IC50 [6]: 770 nM
IC50 [7]: 770 nM
IC50 [9]: 560 nM
IC50 [10]: 1140 nM
IC50 [11]: 2500 nM
IC50 [12]: 1500 nM
IC50 [13]: 540 nM
Compound: Nc1ccccc1NC(=O)CCCCCOc1no[n+]([O-])c1S(=O)(=O)c1ccccc1
IC50 [8]: 410 nM
